Results as given in US20050101482A1, “Novel adsorbent” (priority 2001, published 2005).

Experiments:
[1] = Concentration of Erythromycin in the blood of rabbits; type: in vivo; details: rabbit, 1.5 hours after the oral ingestion of 40 mg per head, groups taking and not taking the adsorbent alike
Method: The symptom of diarrhea was manifested in 100% of the rabbits of the group not using the adsorbent and 0% of the rabbits of the group using the adsorbent. At this time, in the group of rabbits taking the adsorbent and the group of rabbits not taking the adsorbent alike, the concentration of Erythromycin in the blood measured 1.5 hours after the oral ingestion was invariably in the range of 0.12-0.13 μg/ml.

[2] = in human beings; cited from earlier work
[3] = orally ingested to a rabbit; cited from earlier work
[4] = orally ingested into human beings; cited from earlier work

Question: Which concentration at 1.5 h [1] does the source give for CC[C@H]1OC(=O)[C@H](C)[C@@H](O[C@H]2C[C@@](C)(OC)[C@@H](O)[C@H](C)O2)[C@H](C)[C@@H](O[C@@H]2O[C@H](C)C[C@H](N(C)C)[C@H]2O)[C@](C)(O)C[C@@H](C)C(=O)[C@H](C)[C@@H](O)[C@]1(C)O [Erythromycin] here?
Answer: 120 to 130 ng/mL

Question: What does the source list for C[C@H]1CC[C@@H]2[C@@H](C)[C@H]3[C@H](C[C@H]4[C@@H]5CC=C6C[C@@H](O[C@@H]7O[C@H](CO)[C@H](O)[C@H](O[C@@H]8O[C@H](CO)[C@@H](O)[C@H](O)[C@H]8O)[C@H]7O[C@H]7O[C@@H](C)[C@H](O)[C@@H](O)[C@H]7O)CC[C@]6(C)[C@H]5CC[C@]34C)N2C1 [Solanine]?
Answer: concentration causing poisoning [2]: 0.2 to 0.4 g; LD50 [3]: 450 mg/kg

Question: With OCCOCCO [Diethylene glycol] as the molecule, how does the “toxicity LD50” value [4] read?
Answer: 1000 mg/kg
